# Where a SMILES comes first, the peptide text is derived from it. Bridges are numbered along the chain shown (N, C = ends). [ ]: non-standard residue; d: D form. The star is where a group is joined. hPhe(3-Cl-4-CF3) = N[C@@H](CCc1ccc(C(F)(F)F)c(Cl)c1)C(=O)O; NPrPhe(4-CF3) = CCCN[C@@H](Cc1ccc(C(F)(F)F)cc1)C(=O)O; NEtPhe(4-CF3) = CCN[C@@H](Cc1ccc(C(F)(F)F)cc1)C(=O)O; NPrPhe(4-Me) = CCCN[C@@H](Cc1ccc(C)cc1)C(=O)O; NMeGly(cPent) = CN[C@H](C(=O)O)C1CCCC1; Pro(4,4-F2) = O=C(O)[C@@H]1CC(F)(F)CN1; Hyp = O=C(O)[C@@H]1C[C@@H](O)CN1; NMeD = CN[C@@H](CC(=O)O)C(=O)O; NMeL = CN[C@@H](CC(C)C)C(=O)O; Ac6c = NC1(C(=O)O)CCCCC1; Morpholide = C1CN(*)CCO1; NMeA = CN[C@@H](C)C(=O)O; Ac5c = NC1(C(=O)O)CCCC1; Aze = O=C(O)[C@@H]1CCN1; Ac4c = NC1(C(=O)O)CCC1; Sar = CNCC(=O)O
# Experiments:
# [1] = target: HRAS wild-type protein (Homo sapiens, UniProt P01112); test: Binding to HRAS by surface plasmon resonance (SPR), KD and KD ratio to KRAS
# Chain of HRAS wild-type protein (P01112 whole entry): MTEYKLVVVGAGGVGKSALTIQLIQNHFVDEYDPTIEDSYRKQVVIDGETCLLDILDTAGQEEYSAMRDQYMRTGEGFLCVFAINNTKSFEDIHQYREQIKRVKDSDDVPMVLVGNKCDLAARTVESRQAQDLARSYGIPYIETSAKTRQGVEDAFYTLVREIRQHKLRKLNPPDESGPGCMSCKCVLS
# Outline: (§1)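 Running buffer contained 10 µM GDP and 10 mM MgCl2 to keep RAS in the GDP state, with 4% DMSO at pH 7.4. Compounds were flowed at 100 µL/min in 75 s steps of rising concentration over captured biotin-Avi RAS at 30°C. Sensorgrams were fitted 1:1 for KD.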
# [2] = tested on: human lung cancer strain NCI-H441; format: cell-based
# Outline: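 Step one: dispense the test compound in serial DMSO dilutions. Step three: add the reagent and measure […].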
# [3] = target: GDP-bound NRAS wild-type protein (Homo sapiens, UniProt P01111); test: Binding to NRAS by surface plasmon resonance (SPR), KD and KD ratio to KRAS
# Chain of GDP-bound NRAS wild-type protein (P01111 whole entry): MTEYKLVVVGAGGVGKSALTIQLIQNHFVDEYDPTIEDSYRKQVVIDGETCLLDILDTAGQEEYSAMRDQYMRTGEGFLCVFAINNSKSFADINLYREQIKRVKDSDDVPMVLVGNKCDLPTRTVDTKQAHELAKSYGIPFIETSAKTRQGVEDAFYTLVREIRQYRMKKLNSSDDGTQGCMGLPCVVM
# Outline: as §1
# [4] = ratio of the KD value with respect to HRAS wild-type protein to the KD value with respect to KRAS
# [5] = ratio of the KD value with respect to GDP-bound NRAS wild-type protein to the KD value with respect to KRAS
# [6] = ratio of KD for HRAS wild-type protein to KD for KRAS
# [7] = ratio of KD for GDP-bound NRAS wild-type protein to KD for KRAS
structure (smiles),measurement,setting,value
CCCN1C(=O)CN(C)C(=O)CNC(=O)[C@H]([C@@H](C)CC)NC(=O)[C@H](CC(C)C)N(C)C(=O)C[C@@H](C(=O)N2CCOCC2)N(C)C(=O)[C@H](C2CCCC2)N(C)C(=O)C2(CCC2)NC(=O)[C@@H]2CCCN2C(=O)[C@H](CCc2ccc(C(F)(F)F)c(Cl)c2)NC(=O)CN(C)C(=O)[C@@H]1Cc1ccc(C(F)(F)F)cc1 [PP0393] ([NMeL]IG[Sar][NPrPhe(4-CF3)][Sar][hPhe(3-Cl-4-CF3)]P[Ac4c][NMeGly(cPent)][NMeD]-Morpholide; lactam N-11),HRAS /KRAS,[1]; [4],B (a compound having 3 or more and less than 10 is denoted as B)
same,IC50,[2],2.7 nM
same,NRAS /KRAS,[3]; [5],B (a compound having 3 or more and less than 10 is denoted as B)
CCCN1C(=O)CN(C)C(=O)CN(C)C(=O)[C@H]([C@@H](C)CC)NC(=O)[C@H](CC(C)C)N(C)C(=O)C[C@@H](C(=O)N(C)C)N(C)C(=O)[C@H](C2CCCC2)N(C)C(=O)C2(CCCC2)NC(=O)[C@@H]2C[C@@H](OCC)CN2C(=O)[C@H](CCc2ccc(C(F)(F)F)c(Cl)c2)NC(=O)CN(C)C(=O)[C@@H]1Cc1ccc(C(F)(F)F)cc1 [PP0415] ([NMeL]I[Sar][Sar][NPrPhe(4-CF3)][Sar][hPhe(3-Cl-4-CF3)][Hyp](Et)[Ac5c][NMeGly(cPent)][NMeD]-NMe2; lactam N-11),HRAS /KRAS,[1]; [4],B (a compound having 3 or more and less than 10 is denoted as B)
same,IC50,[2],1.9 nM
same,NRAS /KRAS,[3]; [5],B (a compound having 3 or more and less than 10 is denoted as B)
CCO[C@@H]1C[C@H]2C(=O)NC3(CCCC3)C(=O)N(C)[C@@H](C3CCCC3)C(=O)N(C)[C@H](C)CC(=O)N(C)[C@@H](CC(C)C)C(=O)N[C@@H]([C@@H](C)CC)C(=O)N(C)CC(=O)N(C)[C@H]3C/C=C\CCN(C3=O)[C@@H](Cc3ccc(C(F)(F)F)cc3)C(=O)N(C)CC(=O)N[C@@H](CCc3cc(F)c(C(F)(F)F)c(F)c3)C(=O)N2C1 [PP1096],HRAS /KRAS,[1]; [6],B (a compound having 3 or more and less than 10 is denoted as B)
same,IC50,[2],38.1 nM
same,NRAS /KRAS,[3]; [7],B (a compound having 3 or more and less than 10 is denoted as B)
CC[C@H](C)[C@@H]1NC(=O)[C@H](CC(C)C)N(C)C(=O)C[C@@H](C(=O)N2CCOCC2)N(C)C(=O)[C@H](C2CCCC2)N(C)C(=O)C2(CCC2)NC(=O)[C@@H]2[C@@H](OC)CCN2C(=O)[C@H](CCc2cc(F)c(C(F)(F)F)c(F)c2)NC(=O)CN(C)C(=O)[C@H](Cc2ccc(C(F)(F)F)cc2)N2CCCC[C@@H](C2=O)N(C)C(=O)CN(C)C1=O [PP1075],HRAS /KRAS,[1]; [6],B (a compound having 3 or more and less than 10 is denoted as B)
same,IC50,[2],21.8 nM
same,NRAS /KRAS,[3]; [7],B (a compound having 3 or more and less than 10 is denoted as B)
CCC[C@H]1C(=O)N[C@@H]([C@@H](C)CC)C(=O)N2CCC[C@H]2C(=O)N(C)[C@H]2C/C=C\CCN(C2=O)[C@@H](Cc2ccc(C)cc2)C(=O)N(C)CC(=O)N[C@@H](CCc2ccc(C(F)(F)F)c(OC)c2)C(=O)N2C[C@H](OCC)C[C@H]2C(=O)N(C)C2(CCC2)C(=O)N(C)[C@@H](C(CC)CC)C(=O)N(C)[C@H](C(=O)N(C)C)CC(=O)N1C [PP2329],HRAS /KRAS,[1]; [4],A (a compound having 10 or more and less than 20 is denoted as A)
same,IC50,[2],6.5 nM
same,NRAS /KRAS,[3]; [5],A (a compound having 10 or more and less than 20 is denoted as A)
CC[C@H](C)[C@@H]1NC(=O)[C@H](CC(C)C)N(C)C(=O)C[C@@H](C(=O)N2CCOCC2)N(C)C(=O)[C@H](C2CCCC2)N(C)C(=O)C2(CCCCC2)NC(=O)[C@@H]2CCCN2C(=O)[C@H](CCc2ccc(C(F)(F)F)c(Cl)c2)NC(=O)CN(C)C(=O)[C@H](Cc2ccc(C(F)(F)F)cc2)N(CC)C(=O)[C@@H]2CCN2C(=O)[C@H](C)N(C)C1=O [PP0222] ([NMeL]I[NMeA][Aze][NEtPhe(4-CF3)][Sar][hPhe(3-Cl-4-CF3)]P[Ac6c][NMeGly(cPent)][NMeD]-Morpholide; lactam N-11),HRAS /KRAS,[1]; [6],C (A compound having a KD ratio of 0.1 or more and less than 3 is denoted as C)
same,IC50,[2],17.1 nM
same,NRAS /KRAS,[3]; [7],C (A compound having a KD ratio of 0.1 or more and less than 3 is denoted as C)
CCO[C@@H]1C[C@H]2C(=O)NC3(CC(C)(C)C3)C(=O)N(C)[C@@H](C3CCCC3)C(=O)N(C)[C@H](C(=O)N3CCCCC3)CC(=O)N(C)[C@@H](CC)C(=O)N[C@@H]([C@@H](C)CC)C(=O)N(C)CC(=O)N(C)[C@H]3C/C=C\CCN(C3=O)[C@@H](Cc3ccc(C(F)(F)F)cc3)C(=O)N(C)CC(=O)N[C@@H](CCc3cc(F)c(C(F)(F)F)c(F)c3)C(=O)N2C1 [PP1945],HRAS /KRAS,[1]; [4],A (a compound having 10 or more and less than 20 is denoted as A)
same,IC50,[2],33.8 nM
same,NRAS /KRAS,[3]; [5],AA (a compound having 20 or more is denoted as AA)
CC[C@H](C)[C@@H]1NC(=O)[C@H](CC(C)C)N(C)C(=O)C[C@@H](C(=O)N2CCOCC2)N(C)C(=O)[C@H](C2CCCC2)N(C)C(=O)C2(CCCC2)NC(=O)[C@@H]2CCCN2C(=O)[C@H](CCc2ccc(C(F)(F)F)c(Cl)c2)NC(=O)CN(C)C(=O)[C@H](Cc2ccc(C(F)(F)F)cc2)N(CC)C(=O)CN(C)C(=O)CN(C)C1=O [PP0023] ([NMeL]I[Sar][Sar][NEtPhe(4-CF3)][Sar][hPhe(3-Cl-4-CF3)]P[Ac5c][NMeGly(cPent)][NMeD]-Morpholide; lactam N-11),HRAS /KRAS,[1]; [6],C (A compound having a KD ratio of 0.1 or more and less than 3 is denoted as C)
same,IC50,[2],4.5 nM
same,NRAS /KRAS,[3]; [7],B (a compound having 3 or more and less than 10 is denoted as B)
CCCN1C(=O)[C@@H]2CCN2C(=O)[C@H](C)N(C)C(=O)[C@H]([C@@H](C)CC)NC(=O)[C@H](CC(C)C)N(C)C(=O)C[C@@H](C(=O)N2CCOCC2)N(C)C(=O)[C@H](C2CCCC2)N(C)C(=O)C2(CCCC2)NC(=O)[C@@H]2CCCN2C(=O)[C@H](CCc2ccc(C(F)(F)F)c(Cl)c2)NC(=O)CN(C)C(=O)[C@@H]1Cc1ccc(C)cc1 [PP0052] ([NMeL]I[NMeA][Aze][NPrPhe(4-Me)][Sar][hPhe(3-Cl-4-CF3)]P[Ac5c][NMeGly(cPent)][NMeD]-Morpholide; lactam N-11),HRAS /KRAS,[1]; [6],B (a compound having 3 or more and less than 10 is denoted as B)
same,IC50,[2],1.7 nM
same,NRAS /KRAS,[3]; [7],C (A compound having a KD ratio of 0.1 or more and less than 3 is denoted as C)
C#CC[C@H]1C(=O)N[C@@H]([C@@H](C)CC)C(=O)N(C)CC(=O)N(C)[C@H]2C/C=C\CCN(C2=O)[C@@H](Cc2ccc(C(F)(F)F)cc2)C(=O)N(C)CC(=O)N[C@@H](CCc2cc(F)c(C(F)(F)F)c(F)c2)C(=O)N2CC3(CC3)C[C@H]2C(=O)NC2(CC(C)(C)C2)C(=O)N(C)[C@@H](C2CCCC2)C(=O)N(C)[C@H](C(=O)N(C)C)CC(=O)N1C [PP2976],HRAS /KRAS,[1]; [6],B (a compound having 3 or more and less than 10 is denoted as B)
same,IC50,[2],8.7 nM
same,NRAS /KRAS,[3]; [7],A (a compound having 10 or more and less than 20 is denoted as A)
CCO[C@@H]1C[C@H]2C(=O)N(C)C3(CCC3)C(=O)N(C)[C@@H](C(CC)CC)C(=O)N(C)[C@H](C(=O)N(C)C)CC(=O)N(C)[C@@H](COC)C(=O)N[C@@H]([C@@H](C)CC)C(=O)N(C)CC(=O)N(C)[C@H]3C/C=C\CCN(C3=O)[C@@H](CC3CCCCC3)C(=O)N(C)CC(=O)N[C@@H](CCc3ccc(C(F)(F)F)c(OC)c3)C(=O)N2C1 [PP2335],HRAS /KRAS,[1]; [4],A (a compound having 10 or more and less than 20 is denoted as A)
same,IC50,[2],64.2 nM
same,NRAS /KRAS,[3]; [5],A (a compound having 10 or more and less than 20 is denoted as A)
CCO[C@@H]1C[C@H]2C(=O)NC3(CCC3)C(=O)N(C)[C@@H](C3CCCC3)C(=O)N(C)[C@H](C(=O)N(C)C)CC(=O)N(C)[C@@H](COC)C(=O)N[C@@H]([C@@H](C)CC)C(=O)N(C)CC(=O)N(C)[C@H]3CCCCN(C3=O)[C@@H](Cc3ccc(C(F)(F)F)cc3)C(=O)N(C)CC(=O)N[C@@H](CCc3cc(F)c(C(F)(F)F)c(F)c3)C(=O)N2C1 [PP0704],HRAS /KRAS,[1]; [4],C (A compound having a KD ratio of 0.1 or more and less than 3 is denoted as C)
same,IC50,[2],11.4 nM
same,NRAS /KRAS,[3]; [5],C (A compound having a KD ratio of 0.1 or more and less than 3 is denoted as C)
"CCCN1C(=O)[C@@H]2CCN2C(=O)[C@H](C)N(C)C(=O)[C@H]([C@@H](C)CC)NC(=O)[C@H](CC(C)C)N(C)C(=O)C[C@@H](C(=O)N2CCOCC2)N(C)C(=O)[C@H](C2CCCC2)N(C)C(=O)C2(CCCC2)NC(=O)[C@@H]2CC(F)(F)CN2C(=O)[C@H](CCc2ccc(C(F)(F)F)c(Cl)c2)NC(=O)CN(C)C(=O)[C@@H]1Cc1ccc(C(F)(F)F)cc1 [PP0196] ([NMeL]I[NMeA][Aze][NPrPhe(4-CF3)][Sar][hPhe(3-Cl-4-CF3)][Pro(4,4-F2)][Ac5c][NMeGly(cPent)][NMeD]-Morpholide; lactam N-11)",HRAS /KRAS,[1]; [6],C (A compound having a KD ratio of 0.1 or more and less than 3 is denoted as C)
same,IC50,[2],3.7 nM
same,NRAS /KRAS,[3]; [7],C (A compound having a KD ratio of 0.1 or more and less than 3 is denoted as C)

# Reference: EP4603105A1, “PHARMACEUTICAL COMPOSITION CONTAINING CYCLIC COMPOUND HAVING SELECTIVE KRAS INHIBITORY EFFECT AGAINST HRAS AND NRAS” (CHUGAI SEIYAKU KABUSHIKI KAISHA, priority 2022, dated 2024)
